According to PMC3997483, “Aminostyrylbenzofuran Directly Reduces Oligomeric Amyloid-β and Reverses Cognitive Deficits in Alzheimer Transgenic Mice” (PLoS ONE, 2014):

Columns and labels:
APP/PS1 TG mice [1] = experiment: Y-maze, prophylactic trial; type: in vivo, mouse; conditions: PO 100 mg/kg/day, 5 to 12 months of age
APP/PS1 TG mice [2] = experiment: Morris water maze, prophylactic trial; type: in vivo, mouse; conditions: TG mice
Procedure: Behavioral tests were performed in the following sequence: Y-maze (day 1), Morris water maze (day 4 to 12) and contextual fear conditioning (day 26 to 27). To reduce stress, contextual fear conditioning was carried out 2 weeks after the Morris water maze task. In the therapeutic trial, APP/PS1 TG mice were treated with KMS88009 (30 mg/kg/day) for 3 months from 9 to 12 months of age. Y-maze tests short-term spatial working memory. Y-maze is a 3-armed (40 L×10 W×12 H cm) horizontal maze in which the arms are symmetrically disposed at 120° angles from each other. Mice were placed at the end of one arm and allowed to move freely through the maze during a 5-min session. Arm entry was considered completed when the hind paws of the mouse were completely placed in the arm. Alternation was defined as successive entries into the 3 arms on overlapping triplet sets. The series of arm entries was recorded via video recorders. The percentage of alternation was defined according to the following equation: % alternation = [(number of alternations)/(total arm entries - 2)] ×100. Mice performing fewer than 7 alternations in 5 min were excluded from the subsequent analysis to accurately determine alternation scores. Morris water maze was used to measure spatial learning and memory. A stainless pool apparatus with a diameter of 120 cm was used. A clear escape platform (circle, 12×12 cm) was located 1.0 cm below (hidden) the water surface containing white nontoxic paint. The temperature of water was kept constant throughout the experiment (21±1°C). The visual cues, for mice to recognize the environment and direction, are placed on the walls around the pool. The training was consisted of 8 consecutive days of testing with 4 trials per day. When a mouse was located on the escape platform, it was permitted to remain on the platform for 15 sec. […] Then the subject was returned to its home cage and allowed to dry up after each trial. The platform location was kept constant and the starting position was varied. Each mouse was placed in the water with their nose pointing toward the wall at one of the starting points in a random manner. During each trial session, the time taken to find the hidden platform (latency) was recorded using a video camera-based Ethovision System (Nodulus, Nertherlands). On the 9th day, each mouse was tested on a probe trial. The platform was removed from pool and the mice were allowed to swim for 60 sec to search. Swimming time was recorded during mice were in the pool quadrant where the platform had been previously located. Mice, which float or jump from platform, were eliminated from the experiment since these responses may be incompatible with the behaviors needed to locate and learn the platform position. In addition, animals with difficulty in swimming were also excluded from this study. Fear conditioning task was measured to test the ability to learn and remember an association between an aversive experience and environmental cues. Contextual fear conditioning evaluation was performed using a fear-conditioning chamber (Courlbourn, USA) equipped with a computer-controlled fear conditioning system (FreActimetrics, USA). On the first day of training, each mouse was placed in the conditioning chamber and left to adjust for 2 min. Fear conditioning test was performed with conditional stimulus (CS) of sound (75 dB) for 20 sec followed by unconditional stimulus (US) of electric foot-shock (0.5 mA) for the last 2 sec in CS. After 1 min, the subject was returned to its home cage. After 24 hr, retention test was performed. […] Freezing response was measured without CS or US. Freezing behavior was defined as the complete absence of any movement except for respiration and heartbeat. Animals with no response to the foot-shock during training were excluded from the analysis. Data analyses including recordings of all behavioral responses were performed by keeping research colleagues blind.

in vitro = conditions: monkey, microsomes

Row | Structure (SMILES) | frequency of spontaneous alternation (Y-maze) (APP/PS1 TG mice [1]) [%] | Latency (hidden platform) (APP/PS1 TG mice [2]; Day 1, dose group +++ (100 mg/kg/day)) [s] | Latency (hidden platform) (APP/PS1 TG mice [2]; Day 2, dose group +++ (100 mg/kg/day)) [s] | Latency (hidden platform) (APP/PS1 TG mice [2]; Day 3, dose group +++ (100 mg/kg/day)) [s] | Latency (hidden platform) (APP/PS1 TG mice [2]; Day 4, dose group +++ (100 mg/kg/day)) [s] | Latency (hidden platform) (APP/PS1 TG mice [2]; Day 5, dose group +++ (100 mg/kg/day)) [s] | Latency (hidden platform) (APP/PS1 TG mice [2]; Day 6, dose group +++ (100 mg/kg/day)) [s] | Latency (hidden platform) (APP/PS1 TG mice [2]; Day 7, dose group +++ (100 mg/kg/day)) [s] | Latency (hidden platform) (APP/PS1 TG mice [2]; Day 8, dose group +++ (100 mg/kg/day)) [s] | half-life at 5 µM (in vitro) [min] | remaining at 1 h, 5 µM (in vitro) [%]
1 | O[C@H]1[C@H](O)[C@@H](O)[C@H](O)[C@@H](O)[C@@H]1O [Scyllo-inositol, reference compound] | 70.0 | 49.1 ± 2.4 | 43.1 ± 2.6 | 44.7 ± 4.2 | 37.5 ± 4.0 | 44.6 ± 3.3 | 39.0 ± 4.3 | 38.4 ± 4.4 | 37.2 ± 4.3 | – | –
2 | C[C@]12CC[C@H]3[C@@H](CCC4=CC(=O)CC[C@@]43C)[C@@H]1CC[C@@H]2O [Testosterone, reference compound] | – | – | – | – | – | – | – | – | – | 23.4 ± 0.5 | 16 ± 0.4
